Literature values as cited in publication PMC9915632 (International Journal of Molecular Sciences, 2023).
Non-standard residues stand in square brackets, D forms with d. Orn = NCCC[C@H](N)C(=O)O

Assays:
[1] = ref [22], cited from earlier work
SARS-CoV-2 = settings: in vitro; ref [16]; cited from earlier work
[2] = ref [15]; cited from earlier work

Row | Substance | hemolysis ([1]; limits use to topical application) | tolerability ([1]; topical antibiotic) | anti-SARS-CoV-2 activity (SARS-CoV-2) | antibacterial and fungicidal activity [2]
1 | For-Val-Gly-D-Leu-Ala-D-Val-Val-D-Val-Trp-D-Leu-Trp-D-Leu-Trp-D-Leu-Trp-Gly-ol [Gramicidin D, FDA-approved antimicrobial peptide drug, PubChem CID 45267103] | hemolytic side effect | well-tolerated antibiotic |  | 
2 | cyclo(L[dF]PV[Orn]L[dF]PV[Orn]) [Gramicidin S] |  |  | anti-SARS-CoV-2 activity in vitro | potent antibacterial and fungicidal activity
